Where two headings read alike, the source gives them in different places. Starred links: 1 amine or outer side, 2 acyl side, 3 side chain; linkers in the order of their positions; H or OH if unused. Positions of bridges follow the written chain, without caps; N, C: chain ends. Non-standard residues stand in square brackets, D forms with d. Residues, ends and D or L forms follow the SMILES beside them. Chains are numbered I, II in the order given. *: point of attachment. isoGln = NC(=O)[C@H](CCC(=O)[*:2])N[*:1]; εLys = N[C@@H](CCCCN[*:1])C(=O)[*:2]; Dab = NCC[C@H](N)C(=O)O; PhAc = O=C(Cc1ccccc1)*
Assays:
[1] = tested on: methionine/choline-deficient (MCD) diet rats; assay: ΔPP in methionine/choline-deficient (MCD) diet rats; type: in vivo, rat; settings: for Δ PP (mean): SC, MCD diet rats
[2] = molecular target: T1, rV1b receptor (Rattus norvegicus, UniProt P48974); assay: Luciferase reporter gene assay, rat V1b; settings: read-out: % MPE
T1 sequence (P48974 1-425): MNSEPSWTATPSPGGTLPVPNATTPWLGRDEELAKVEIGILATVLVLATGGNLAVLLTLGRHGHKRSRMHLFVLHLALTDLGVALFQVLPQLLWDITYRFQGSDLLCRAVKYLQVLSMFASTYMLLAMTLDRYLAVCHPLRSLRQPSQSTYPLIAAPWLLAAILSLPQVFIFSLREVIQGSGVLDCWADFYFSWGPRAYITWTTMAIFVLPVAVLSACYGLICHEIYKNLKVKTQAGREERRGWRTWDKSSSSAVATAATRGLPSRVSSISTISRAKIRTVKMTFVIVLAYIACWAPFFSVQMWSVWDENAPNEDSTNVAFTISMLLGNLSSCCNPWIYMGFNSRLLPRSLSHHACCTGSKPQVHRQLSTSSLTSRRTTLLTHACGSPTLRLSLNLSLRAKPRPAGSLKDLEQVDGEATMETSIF
Procedure: Cell Lines. Studies were conducted with cell lines expressing rat (r) or human (h) Via, V1b, V2, or OT receptors. For the experiments with human receptors, human embryonic kidney (HEK)-flp-in cells stably expressing the lacZ-Zeocin™ fusion gene were used for expression of hV1a and hV1b. These cells were designed for use with the Flp-In™ expression vector containing the gene of interest (here hV1a or hV1b) and the Flp recombinase expression plasmid, pOG44. For hV2 and hOTR, HEK-293 cells transiently expressing hV2 were used.
Cell Maintenance. […]
Functional Cell-Based Assays. To detect activity generated by binding of the test compounds to endogenous rV1a receptors or the stably expressed hV1a receptors, Fluorometric Imaging Plate Reader (FL1PR) calcium assays were performed. Briefly, real-time fluorescence of an intracellular calcium-sensitive dye was measured immediately upon addition of the test compound at various concentrations. […] Expression of the luciferase gene was determined after 5-h incubation with various concentrations of test compound. […] For V1a receptor response, area under the curve of the real-time calcium traces, expressed as relative fluorescence units, was determined. […]

[3] = PK of Compound 1, 6-hour intravenous infusion in healthy men and women (Period 1); type: in vivo, human
Procedure: The administered volume was recorded for each subject.
In some instances, endpoints of the study were: vital signs (e.g., supine blood pressure, pulse, and body temperature), electrocardiogram (ECG) (e.g., intervals, rhythm, and morphology), cardiac function (e.g., cardiac output using echocardiography), peripheral blood flow/tissue perfusion (e.g., by skin color), venous blood gases (e.g., lactate), urinary output, clinical chemistry, hematology, hemostasis, and urinalysis, adverse events (AEs) (e.g., type, frequency, and intensity), pharmacokinetics (e.g., AUC, AUCt, AUCτ, % Extrap AUC, Cmax, tmax, CL, Vz, t1/2, MRT, Vss, F, Ae, and CLR), and metabolite pattern in plasma and urine.

Structure (SMILES): CC[C@H](C)[C@@H]1NC(=O)[C@H](Cc2ccccc2)NC(=O)[C@@H](N)CSSC[C@@H](C(=O)N2CCC[C@H]2C(=O)N[C@@H](CCNC(=O)[C@@H](N)CCCCNC(=O)[C@H](CCCCNC(C)=O)NC(=O)CC[C@H](NC(=O)[C@H](CCCNC(=N)N)NC(=O)[C@@H]2CCCN2C(=O)[C@H](C)NC(=O)[C@H](CC(N)=O)NC(=O)[C@H](CCC(N)=O)NC(=O)[C@H](Cc2ccccc2)NC(=O)[C@@H](Cc2ccc(OC)cc2)NC(=O)Cc2ccccc2)C(N)=O)C(=O)NCC(N)=O)NC(=O)[C@H](CC(N)=O)NC(=O)[C@H](CCC(N)=O)NC1=O [Compound 1, Glycinamide, L-cysteinyl-L-phenylalanyl-L-isoleucyl-L-glutaminyl-L-asparaginyl-L-cysteinyl-L-prolyl-N4-(phenylacetyl-O-methyl-D-tyrosyl-L-phenylalanyl-L-glutaminyl-L-asparaginyl-L-alanyl-L-prolyl-L-arginyl-L-isoglutamyl-N5-acetyl-L-lysyl-L-ε-lysyl)-L-2,4-diaminobutyryl-, cyclic (1→6)-disulfide] (I: H-CFIQNCP[Dab]G-NH2 / II: PhAc-[dY](Me)FQNAPR[isoGln]K(Ac)[εLys]; disulfide I:1-I:6; amide I:8-II:C)
- Δ PP (mean) ([1]; 25 μg/kg, 0 min): 0.0 mmHg
- Δ PP (mean) ([1]; 25 μg/kg, 1 min): −0.3 mmHg
- Δ PP (mean) ([1]; 25 μg/kg, 2 min): −0.8 mmHg
- Δ PP (mean) ([1]; 25 μg/kg, 3 min): −1.3 mmHg
- Δ PP (mean) ([1]; 25 μg/kg, 5 min): −1.8 mmHg
- Δ PP (mean) ([1]; 25 μg/kg, 7 min): −1.9 mmHg
- Δ PP (mean) ([1]; 25 μg/kg, 10 min): −2.1 mmHg
- Δ PP (mean) ([1]; 25 μg/kg, 15 min): −2.2 mmHg
- Δ PP (mean) ([1]; 25 μg/kg, 20 min): −2.3 mmHg
- Δ PP (mean) ([1]; 25 μg/kg, 30 min): −2.3 mmHg
- Δ PP (mean) ([1]; 25 μg/kg, 60 min): −2.2 mmHg
- Δ PP (mean) ([1]; 25 μg/kg, 90 min): −1.8 mmHg
- Δ PP (mean) ([1]; 100 μg/kg, 0 min): 0.0 mmHg
- Δ PP (mean) ([1]; 100 μg/kg, 1 min): −0.5 mmHg
- Δ PP (mean) ([1]; 100 μg/kg, 2 min): −1.2 mmHg
- Δ PP (mean) ([1]; 100 μg/kg, 3 min): −1.6 mmHg
- Δ PP (mean) ([1]; 100 μg/kg, 5 min): −2.1 mmHg
- Δ PP (mean) ([1]; 100 μg/kg, 7 min): −2.5 mmHg
- Δ PP (mean) ([1]; 100 μg/kg, 10 min): −2.5 mmHg
- Δ PP (mean) ([1]; 100 μg/kg, 15 min): −2.4 mmHg
- Δ PP (mean) ([1]; 100 μg/kg, 20 min): −2.3 mmHg
- Δ PP (mean) ([1]; 100 μg/kg, 30 min): −2.2 mmHg
- Δ PP (mean) ([1]; 100 μg/kg, 60 min): −2.0 mmHg
- Δ PP (mean) ([1]; 100 μg/kg, 90 min): −1.7 mmHg
- Δ PP (mean) ([1]; 500 μg/kg, 0 min): 0.0 mmHg
- Δ PP (mean) ([1]; 500 μg/kg, 1 min): −1.2 mmHg
- Δ PP (mean) ([1]; 500 μg/kg, 2 min): −1.9 mmHg
- Δ PP (mean) ([1]; 500 μg/kg, 3 min): −2.5 mmHg
- Δ PP (mean) ([1]; 500 μg/kg, 5 min): −2.9 mmHg
- Δ PP (mean) ([1]; 500 μg/kg, 7 min): −3.3 mmHg
- Δ PP (mean) ([1]; 500 μg/kg, 10 min): −2.9 mmHg
- Δ PP (mean) ([1]; 500 μg/kg, 15 min): −3.5 mmHg
- Δ PP (mean) ([1]; 500 μg/kg, 20 min): −3.8 mmHg
- Δ PP (mean) ([1]; 500 μg/kg, 30 min): −3.9 mmHg
- Δ PP (mean) ([1]; 500 μg/kg, 60 min): −3.4 mmHg
- Δ PP (mean) ([1]; 500 μg/kg, 90 min): −3.7 mmHg
- maximum ΔPP ([1]; SC 25 jag/kg (so in the source)): −2.3±0.2 mmHg
- maximum ΔPP ([1]; SC 100 jag/kg (so in the source)): −2.5±0.3 mmHg
- maximum ΔPP ([1]; SC 500 jag/kg (so in the source)): −3.9±0.8 mmHg
- Emax [2]: 97%
- CL renal ([3]; human, in vivo, iv, 0.1 mg, i.v. 0.1 mg, read-out: Renal CL, geometric mean (converted)): 14.5 mL/min
- CL renal ([3]; human, in vivo, iv, 0.1 mg, i.v. 0.1 mg, read-out: Renal CL, mean (converted)): 14.5 mL/min
- CL renal ([3]; human, in vivo, iv, 0.3 mg, i.v. 0.3 mg, read-out: Renal CL, geometric mean (converted)): 11 mL/min
- CL renal ([3]; human, in vivo, iv, 0.3 mg, i.v. 0.3 mg, read-out: Renal CL, mean (converted)): 11 mL/min
- CL renal ([3]; human, in vivo, iv, 0.45 mg, i.v. 0.45 mg, read-out: Renal CL, geometric mean (converted)): 14 mL/min
- CL renal ([3]; human, in vivo, iv, 0.45 mg, i.v. 0.45 mg, read-out: Renal CL, mean (converted)): 14.8 mL/min
- CL renal ([3]; human, in vivo, iv, 0.6 mg, i.v. 0.6 mg, read-out: Renal CL, geometric mean (converted)): 15.5 mL/min
- CL renal ([3]; human, in vivo, iv, 0.6 mg, i.v. 0.6 mg, read-out: Renal CL, mean (converted)): 15.8 mL/min
- CL renal ([3]; human, in vivo, iv, 0.9 mg, i.v. 0.9 mg, read-out: Renal CL, geometric mean (converted)): 14.8 mL/min
- CL renal ([3]; human, in vivo, iv, 0.9 mg, i.v. 0.9 mg, read-out: Renal CL, mean (converted)): 15.8 mL/min
- Vd ([3]; human, in vivo, iv, read-out: distribution volume (summary)): 15 to 20 L
- terminal half-life (summary) ([3]; i.v.): about 1.5 hours
- total clearance (summary) ([3]; i.v.): about 13 L/h
- AUC, geometric mean ([3]; i.v. 0.1 mg): 0.00696 µg·h/mL
- AUC, mean ([3]; i.v. 0.1 mg): 0.00701 µg·h/mL
- Cmax, geometric mean ([3]; i.v. 0.1 mg): 1.18 ng/mL
- Cmax, mean ([3]; i.v. 0.1 mg): 1.19 ng/mL
- T1/2, harmonic mean ([3]; i.v. 0.1 mg): 1.2 h
- Tot. CL, geometric mean ([3]; i.v. 0.1 mg): 14.4 L/h
- Tot. CL, mean ([3]; i.v. 0.1 mg): 14.5 L/h
- Vss, geometric mean ([3]; i.v. 0.1 mg): 21.7 L
- Vss, mean ([3]; i.v. 0.1 mg): 21.8 L
- tmax, mean ([3]; i.v. 0.1 mg): 5.4 h
- tmax, median ([3]; i.v. 0.1 mg): 5.0 h
- AUC, geometric mean ([3]; i.v. 0.3 mg): 0.0246 µg·h/mL
- AUC, mean ([3]; i.v. 0.3 mg): 0.0249 µg·h/mL
- Cmax, geometric mean ([3]; i.v. 0.3 mg): 4.45 ng/mL
- Cmax, mean ([3]; i.v. 0.3 mg): 4.49 ng/mL
- T1/2, harmonic mean ([3]; i.v. 0.3 mg): 1.2 h
- Tot. CL, geometric mean ([3]; i.v. 0.3 mg): 12.2 L/h
- Tot. CL, mean ([3]; i.v. 0.3 mg): 12.3 L/h
- Vss, geometric mean ([3]; i.v. 0.3 mg): 14.5 L
- Vss, mean ([3]; i.v. 0.3 mg): 15.0 L
- tmax, mean ([3]; i.v. 0.3 mg): 5.2 h
- tmax, median ([3]; i.v. 0.3 mg): 5.5 h
- AUC, geometric mean ([3]; i.v. 0.45 mg): 0.0341 µg·h/mL
- AUC, mean ([3]; i.v. 0.45 mg): 0.0345 µg·h/mL
- Cmax, geometric mean ([3]; i.v. 0.45 mg): 6.20 ng/mL
- Cmax, mean ([3]; i.v. 0.45 mg): 6.26 ng/mL
- Tot. CL, geometric mean ([3]; i.v. 0.45 mg): 13.2 L/h
- Tot. CL, mean ([3]; i.v. 0.45 mg): 13.3 L/h
- Vss, geometric mean ([3]; i.v. 0.45 mg): 15.2 L
- Vss, mean ([3]; i.v. 0.45 mg): 15.5 L
- tmax, mean ([3]; i.v. 0.45 mg): 5.0 h
- tmax, median ([3]; i.v. 0.45 mg): 5.0 h
- AUC, geometric mean ([3]; i.v. 0.6 mg): 0.0465 µg·h/mL
- AUC, mean ([3]; i.v. 0.6 mg): 0.0475 µg·h/mL
- Cmax, geometric mean ([3]; i.v. 0.6 mg): 8.32 ng/mL
- Cmax, mean ([3]; i.v. 0.6 mg): 8.45 ng/mL
- Tot. CL, geometric mean ([3]; i.v. 0.6 mg): 12.9 L/h
- Tot. CL, mean ([3]; i.v. 0.6 mg): 13.2 L/h
- Vss, geometric mean ([3]; i.v. 0.6 mg): 15.4 L
- Vss, mean ([3]; i.v. 0.6 mg): 16.3 L
- tmax, mean ([3]; i.v. 0.6 mg): 5.4 h
- tmax, median ([3]; i.v. 0.6 mg): 6.0 h
- AUC, geometric mean ([3]; i.v. 0.9 mg): 0.0718 µg·h/mL
- AUC, mean ([3]; i.v. 0.9 mg): 0.0725 µg·h/mL
- Cmax, geometric mean ([3]; i.v. 0.9 mg): 12.7 ng/mL
- Cmax, mean ([3]; i.v. 0.9 mg): 12.8 ng/mL
- T1/2, harmonic mean ([3]; i.v. 0.9 mg): ~1.7 h
- T1/2, mean ([3]; i.v. 0.9 mg): 2.0 h
- Tot. CL, geometric mean ([3]; i.v. 0.9 mg): 12.5 L/h
- Tot. CL, mean ([3]; i.v. 0.9 mg): 12.7 L/h
- Vss, geometric mean ([3]; i.v. 0.9 mg): 15.3 L
- Vss, mean ([3]; i.v. 0.9 mg): 15.5 L
- tmax, mean ([3]; i.v. 0.9 mg): 5.3 h
- tmax, median ([3]; i.v. 0.9 mg): 6.0 h
- dose proportionality of AUC and Cmax ([3]; i.v., 0.1-0.9 mg): proportionality for both parameters
- harmonic mean terminal half-life ([3]; i.v., dose groups other than 0.6 and 0.9 mg): 1.2 to 1.3 h
- exposure (AUC, Cmax), women versus men ([3]; i.v., also s.c.): higher exposure in women than in men
- terminal half-life ([3]; route not stated): 1.5 to 2 h
